In US20100010219A1, “METHOD FOR PRODUCING PYRROLIDINE COMPOUND” (JAPAN TOBACCO INC., priority 2006, published 2010):

Molecular target: T1, human HSD-1 (recombinant HSD-1) (Homo sapiens, UniProt P28845)
T1 construct: made in house
Assay: HSD-1 activity inhibitory action in vitro (SPA, conversion of cortisone to cortisol)
Format: biochemical
Settings: recombinant human HSD-1 expressed using baculovirus system; 10 nM 3H cortisone, 500 μM NADPH; room temperature 90 to 120 min; read-out: hHSD1 (IC50 (nM))

T1 sequence (P28845 whole entry): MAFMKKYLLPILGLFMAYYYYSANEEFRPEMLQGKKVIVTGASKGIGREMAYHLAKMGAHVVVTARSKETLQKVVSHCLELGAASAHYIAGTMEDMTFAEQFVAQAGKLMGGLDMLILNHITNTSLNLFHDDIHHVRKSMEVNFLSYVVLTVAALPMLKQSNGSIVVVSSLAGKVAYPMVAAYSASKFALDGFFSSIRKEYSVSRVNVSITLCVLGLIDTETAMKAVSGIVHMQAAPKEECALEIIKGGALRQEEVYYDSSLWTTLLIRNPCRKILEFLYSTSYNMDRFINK

Row | IC50 [nM] | Structure (SMILES)
1 | < 30 | COC1(c2c(C(=O)N3CCC(c4ccccc4C(F)(F)F)C3)cnn2C2CCN(C(=O)Nc3ccccc3F)CC2)CC1 (stereo not drawn) [Example 134, 1-{1-[1-(2-fluorophenylcarbamoyl)piperidin-4-yl]-5-(1-methoxycyclopropyl)-1H-pyrazole-4-carbonyl}-3-(2-trifluoromethylphenyl)pyrrolidine]
2 | < 30 | CC1(c2c(C(=O)N3CCC(c4ccccc4)(C(F)(F)F)C3)cnn2C2CCN(C(=O)Nc3ccccc3F)CC2)CC1 (stereo not drawn) [Example 135, 1-{1-[1-(2-fluorophenylcarbamoyl)piperidin-4-yl]-5-(1-methylcyclopropyl)-1H-pyrazole-4-carbonyl}-3-phenyl-3-trifluoromethylpyrrolidine]
3 | < 30 | O=C(Nc1ccc(F)cc1F)N1CCC(n2ncc(C(=O)N3CCC(c4ccccc4Cl)C3)c2C2CC2)CC1 (stereo not drawn) [Example 136, 3-(2-chlorophenyl)-1-{5-cyclopropyl-1-[1-(2,4-difluorophenylcarbamoyl)piperidin-4-yl]-1H-pyrazole-4-carbonyl}pyrrolidine]
4 | < 30 | O=C(Nc1ccccc1F)N1CCC(n2ncc(C(=O)N3CCC(c4cccnc4Cl)C3)c2C2CC2)CC1 (stereo not drawn) [Example 137, 3-(2-chloropyridin-3-yl)-1-{5-cyclopropyl-1-[1-(2-fluorophenylcarbamoyl)piperidin-4-yl]-1H-pyrazole-4-carbonyl}pyrrolidine]
5 | < 30 | CC1(C)C(c2c(C(=O)N3CCC(c4cccnc4)C3)cnn2C2CCN(C(=O)Nc3ccccc3F)CC2)C1(C)C (stereo not drawn) [Example 138, 1-{1-[1-(2-fluorophenylcarbamoyl)piperidin-4-yl]-5-(2,2,3,3-tetramethylcyclopropyl)-1H-pyrazole-4-carbonyl}-3-(pyridin-3-yl)pyrrolidine]
6 | < 30 | O=C(Nc1ccccc1F)N1CCC(n2ncc(C(=O)N3CCC(c4cccnc4)C3)c2C2CCCCC2)CC1 (stereo not drawn) [Example 139, 1-{5-cyclohexyl-1-[1-(2-fluorophenylcarbamoyl)piperidin-4-yl]-1H-pyrazole-4-carbonyl}-3-(pyridin-3-yl)pyrrolidine]
7 | < 30 | O=C(Nc1ccccc1F)N1CCC(n2ncc(C(=O)N3CCC(c4ccccc4OC(F)(F)F)C3)c2C2CC2)CC1 (stereo not drawn) [Example 140, 1-{5-cyclopropyl-1-[1-(2-fluorophenylcarbamoyl)piperidin-4-yl]-1H-pyrazole-4-carbonyl}-3-(2-trifluoromethoxyphenyl)pyrrolidine]
8 | < 30 | O=C(Nc1ccc(C(F)(F)F)cc1)N1CCC(n2ncc(C(=O)N3CCC(c4ccccc4C(F)(F)F)C3)c2C2CC2)CC1 (stereo not drawn) [Example 141, 1-{5-cyclopropyl-1-[1-(4-trifluoromethylphenylcarbamoyl)piperidin-4-yl]-1H-pyrazole-4-carbonyl}-3-(2-trifluoromethylphenyl)pyrrolidine]
9 | < 30 | CC(C)[C@@H](C(=O)O)N(C)C(=O)N1CCC(n2ncc(C(=O)N3CCC(c4ccccc4C(F)(F)F)C3)c2C2CC2)CC1 (stereo partly drawn) [Example 142, 1-(5-cyclopropyl-1-{1-[((S)-1-carboxy-2-methyl-propyl)methylcarbamoyl]piperidin-4-yl}-1H-pyrazole-4-carbonyl)-3-(2-trifluoromethylphenyl)pyrrolidine]
10 | < 30 | O=C(Nc1nccs1)N1CCC(n2ncc(C(=O)N3CCC(c4ccccc4C(F)(F)F)C3)c2C2CC2)CC1 (stereo not drawn) [Example 145, 1-{5-cyclopropyl-1-[1-(thiazol-2-ylcarbamoyl)piperidin-4-yl]-1H-pyrazole-4-carbonyl}-3-(2-trifluoromethylphenyl)pyrrolidine]
11 | < 30 | CC(C)ONC(=O)N1CCC(n2ncc(C(=O)N3CCC(c4ccccc4C(F)(F)F)C3)c2C2(C)CC2)CC1 (stereo not drawn) [Example 146, 1-{1-[1-(isopropoxycarbamoyl)piperidin-4-yl]-5-(1-methylcyclopropyl)-1H-pyrazole-4-carbonyl}-3-(2-trifluoromethylphenyl)pyrrolidine]
12 | < 30 | O=C(NCc1ccc(F)cc1)N1CCC(n2ncc(C(=O)N3CCC(c4ccccc4C(F)(F)F)C3)c2C2CC2)CC1 (stereo not drawn) [Example 147, 1-{5-cyclopropyl-1-[1-(4-fluorobenzylcarbamoyl)piperidin-4-yl]-1H-pyrazole-4-carbonyl}-3-(2-trifluoromethylphenyl)pyrrolidine]
13 | < 30 | CC1(c2c(C(=O)N3CCC(c4cccnc4)C3)cnn2C2CCN(C(=O)N3CCc4ccccc43)CC2)CC1 (stereo not drawn) [Example 148, 1-{1-[1-(2,3-dihydroindole-1-carbonyl)piperidin-4-yl]-5-(1-methylcyclopropyl)-1H-pyrazole-4-carbonyl}-3-(pyridin-3-yl)pyrrolidine]
14 | < 30 | CC1(c2c(C(=O)N3CCC(c4cccnc4)C3)cnn2C2CCN(C(=O)N3CCOc4ccccc43)CC2)CC1 (stereo not drawn) [Example 149]
15 | < 30 | O=C(Nc1ccc(Cl)nc1Cl)N1CCC(n2ncc(C(=O)N3CCC(c4ccccc4C(F)(F)F)C3)c2C2CC2)CC1 (stereo not drawn) [Example 150, 1-{5-cyclopropyl-1-[1-(2,6-dichloropyridin-3-ylcarbamoyl)piperidin-4-yl]-1H-pyrazole-4-carbonyl}-3-(2-trifluoromethylphenyl)pyrrolidine]
16 | < 30 | CC1(c2c(C(=O)N3CCC(c4cccnc4)C3)cnn2C2CCN(C(=O)N3CCCCc4ccccc43)CC2)CC1 (stereo not drawn) [Example 151, 1-{5-(1-methylcyclopropyl)-1-[1-(2,3,4,5-tetrahydrobenzo[b]azepine-1-carbonyl)piperidin-4-yl]-1H-pyrazole-4-carbonyl}-3-(pyridin-3-yl)pyrrolidine]
17 | < 30 | CC(C)(CC(=O)N1CCC(n2ncc(C(=O)N3CCC(c4ccccc4C(F)(F)F)C3)c2C2CC2)CC1)C(=O)O (stereo not drawn) [Example 154, 1-{1-[1-(3-carboxy-3-methyl-butyryl)piperidin-4-yl]-5-cyclopropyl-1H-pyrazole-4-carbonyl}-3-(2-trifluoromethylphenyl)pyrrolidine]
18 | < 30 | O=C(COc1ccccc1)N1CCC(n2ncc(C(=O)N3CCC(c4cccnc4)C3)c2C2CC2)CC1 (stereo not drawn) [Example 155, 1-{5-cyclopropyl-1-[1-(2-phenoxyacetyl)piperidin-4-yl]-1H-pyrazole-4-carbonyl}-3-(pyridin-3-yl)pyrrolidine]
19 | < 30 | O=C(c1cccc(Cl)c1)N1CCC(n2ncc(C(=O)N3CCC(c4cccnc4)C3)c2C2CC2)CC1 (stereo not drawn) [Example 156, 1-{1-[1-(3-chlorobenzoyl)piperidin-4-yl]-5-cyclopropyl-1H-pyrazole-4-carbonyl}-3-(pyridin-3-yl)pyrrolidine]
20 | < 30 | O=C(c1ccccc1Cl)N1CCC(n2ncc(C(=O)N3CCC(c4cccnc4)C3)c2C2CC2)CC1 (stereo not drawn) [Example 157, 1-{1-[1-(2-chlorobenzoyl)piperidin-4-yl]-5-cyclopropyl-1H-pyrazole-4-carbonyl}-3-(pyridin-3-yl)pyrrolidine]
21 | < 30 | O=C(O)C(=O)N1CCC(n2ncc(C(=O)N3CCC(c4ccccc4C(F)(F)F)C3)c2C2CC2)CC1 (stereo not drawn) [Example 158, 1-[5-cyclopropyl-1-(1-oxalylpiperidin-4-yl)-1H-pyrazole-4-carbonyl]-3-(2-trifluoromethylphenyl)pyrrolidine]
22 | < 30 | NC(=O)c1ccc(N2CCC(n3ncc(C(=O)N4CCC(c5ccccc5C(F)(F)F)C4)c3C3CC3)CC2)cc1 (stereo not drawn) [Example 165, 1-{1-[1-(4-carbamoylphenyl)piperidin-4-yl]-5-cyclopropyl-1H-pyrazole-4-carbonyl}-3-(2-trifluoromethylphenyl)pyrrolidine]
23 | < 30 | O=C(c1cnn(C2CCN(c3ccc(CO)cc3)CC2)c1C1CC1)N1CCC(c2ccccc2C(F)(F)F)C1 (stereo not drawn) [Example 166, 1-{5-cyclopropyl-1-[1-(4-hydroxymethylphenyl)piperidin-4-yl]-1H-pyrazole-4-carbonyl}-3-(2-trifluoromethylphenyl)pyrrolidine]
24 | < 30 | NC(=O)c1ccc(N2CCC(n3ncc(C(=O)N4CCC(c5ccccc5C(F)(F)F)C4)c3C3CC3)CC2)nc1 (stereo not drawn) [Example 167, 1-{1-[1-(5-carbamoyl-pyridin-2-yl)piperidin-4-yl]-5-cyclopropyl-1H-pyrazole-4-carbonyl}-3-(2-trifluoromethylphenyl)pyrrolidine]
25 | < 30 | Nc1ccc(N2CCC(n3ncc(C(=O)N4CCC(c5ccccc5C(F)(F)F)C4)c3C3CC3)CC2)cc1 (stereo not drawn) [Example 168, 1-{1-[1-(4-aminophenyl)piperidin-4-yl]-5-cyclopropyl-1H-pyrazole-4-carbonyl}-3-(2-trifluoromethylphenyl)pyrrolidine]
26 | < 30 | O=C(c1cnn(C2CCN(c3ccc(N4CCOC4=O)cc3)CC2)c1C1CC1)N1CCC(c2ccccc2C(F)(F)F)C1 (stereo not drawn) [Example 169, 1-(5-cyclopropyl-1-{1-[4-(2-oxooxazolidin-3-yl)phenyl]piperidin-4-yl}-1H-pyrazole-4-carbonyl)-3-(2-trifluoromethylphenyl)pyrrolidine]
27 | < 30 | CONC(=O)Nc1ccc(N2CCC(n3ncc(C(=O)N4CCC(c5ccccc5C(F)(F)F)C4)c3C3CC3)CC2)cc1 (stereo not drawn) [Example 170, 1-(5-cyclopropyl-1-{1-[4-(3-methoxyureido)phenyl]piperidin-4-yl}-1H-pyrazole-4-carbonyl)-3-(2-trifluoromethylphenyl)pyrrolidine]
28 | < 30 | CS(=O)(=O)Nc1ccc(N2CCC(n3ncc(C(=O)N4CCC(c5ccccc5C(F)(F)F)C4)c3C3CC3)CC2)cc1 (stereo not drawn) [Example 171, 1-{5-cyclopropyl-1-[1-(4-methanesulfonylaminophenyl)piperidin-4-yl]-1H-pyrazole-4-carbonyl}-3-(2-trifluoromethylphenyl)pyrrolidine]
29 | < 30 | CCONC(=O)N1CCC(n2ncc(C(=O)N3CCC(c4ccccc4C(F)(F)F)C3)c2C2(C)CC2)CC1 (stereo not drawn) [Example 172, 1-[1-(1-ethoxycarbamoylpiperidin-4-yl)-5-(1-methylcyclopropyl)-1H-pyrazole-4-carbonyl]-3-(2-trifluoromethylphenyl)pyrrolidine]
30 | < 30 | O=C(c1cnn(C2CN(c3ccc(Cl)cn3)C2)c1C1CC1)N1CCC(c2ccccc2C(F)(F)F)C1 (stereo not drawn) [Example 173]
